In patent US20170076040A1, “SINGLE-CELL ANALYSIS AS A SENSITIVE AND SPECIFIC METHOD FOR EARLY CANCER DETECTION” (THE BOARD OF REGENTS OF THE UNIVERSITY OF TEXAS SYSTEM, priority 2014, published 2017):

Columns and labels:
Format in all cases: cell-based
PC3 cells [1] = test: Cell proliferation, migration, and invasion assays (IncuCyte ZOOM), PC3; details: R1881 1 nM, androgen-independent PC3 cells
Experimental: (§1) Cells were seeded in triplicate wells of a 96-well plate, and every three hours four independent images were taken per well and quantified for confluence percentage using the IncuCyte ZOOM system. To eliminate variations of cell size and seeding densities, relative cell densities at all time points' values were normalized to the initial time point's average confluence.
(§2) Cell monolayers were seeded to optimized confluent levels in a 96-well ImageLock Plate (Essen BioSciences). The 96-well WoundMaker created equal scratches in every well simultaneously for cell migration and invasion analysis (Essen BioSciences). For invasion assays, BD Matrigel™ Basement Membrane Matrix (BD Biosciences) was used for coating the ImageLock plates, creating a thick layer above the scratched monolayer, 0.1 and 4.0 mg/ml respectively. The IncuCyte ZOOM system's scan mode set to scratch wound and wide mode and captured 1 image every 3 hours. Migration and invasion were analyzed using the relative wound density percent (RWD %) metric.

PC3 cells [2] = test: RT-qPCR expression of bimodal genes in PC3 cells with and without R1881; details: R1881 1 nM, androgen-independent PC3 cells
Experimental: (§3) LNCaP and PC3 cells routinely grown in the laboratory were transfected with SMARTpool siRNAs specifically targeting TGFBR2 and GSK3B, respectively, according to the manufacturer protocol (ThermoFisher). Unspecific scrambled siRNA was used as a negative control. Total RNA were prepared from transfected and control cells or from cells treated with R1881 (1 nM), a synthetic androgen agonist. Reverse transcription was performed using the SuperScript III kit (Invitrogen) on a Veriti 96-well Thermocycler (Applied Biosystems). Relative expression values of genes were shown as the average fold changes (2−ΔΔCt) from three individual experiments using UBB as an internal control and the untreated expression designated as 1.

LNCaP cells [3] = test: Cell proliferation, migration, and invasion assays (IncuCyte ZOOM), LNCaP; details: R1881 1 nM (low-dose)
Experimental: as §1, §2

LNCaP cells [4] = test: RT-qPCR expression of bimodal genes in LNCaP cells with and without R1881; details: R1881 1 nM, relative to untreated cells, period of 36 hrs
Experimental: as §3

C[C@]1(O)CC[C@H]2[C@@H]3CCC4=CC(=O)CCC4=C3C=C[C@@]21C [R1881]
cellular phenotypes (PC3 cells [1]): did not alter
gene expression patterns (PC3 cells [2]): did not alter
cell growth (LNCaP cells [3]): did not cause noticeable changes
invasion (LNCaP cells [3]): did not cause noticeable changes
migration (LNCaP cells [3]): did not cause noticeable changes
expression of CDKN1C (LNCaP cells [4]): further repressed
expression of CXCL6 (LNCaP cells [4]): further repressed
